Data taken from PubChem BioAssay (NCI).
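Protocol summary: plate cells (96-well), add compound at 5 concentrations, incubate 48 h, interpolate endpoints linearly. Here, GI50 denotes the concentration required for 50% inhibition of growth. TGI is the concentration that stops growth completely.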

Columns and labels:
Test in all cases: NCI-60 cell line screen, 48 h
RPMI-8226 leukemia = system: RPMI-8226 leukemia
MDA-MB-231 breast = system: MDA-MB-231 breast
COLO 205 colon = system: COLO 205 colon
DU-145 prostate = system: DU-145 prostate
MDA-MB-435 = system: MDA-MB-435
EKVX NSCLC = system: EKVX NSCLC
MCF7 breast = system: MCF7 breast
HCT-116 colon = system: HCT-116 colon
MOLT-4 leukemia = system: MOLT-4 leukemia
SR leukemia = system: SR leukemia

| SMILES | GI50 (RPMI-8226 leukemia) | TGI (RPMI-8226 leukemia) | GI50 (MDA-MB-231 breast) | TGI (MDA-MB-231 breast) | GI50 (COLO 205 colon) | TGI (COLO 205 colon) | GI50 (DU-145 prostate) | TGI (DU-145 prostate) | GI50 (MDA-MB-435) | TGI (MDA-MB-435) | GI50 (EKVX NSCLC) | TGI (EKVX NSCLC) | GI50 (MCF7 breast) | TGI (MCF7 breast) | GI50 (HCT-116 colon) | TGI (HCT-116 colon) | GI50 (MOLT-4 leukemia) | TGI (MOLT-4 leukemia) | GI50 (SR leukemia) | TGI (SR leukemia) |
| --- | --- | --- | --- | --- | --- | --- | --- | --- | --- | --- | --- | --- | --- | --- | --- | --- | --- | --- | --- | --- |
| Oc1c(I)cc(I)c2cccnc12 | 6.96 µM | > 100 µM | 6.99 µM | 46.7 µM | 3.6 µM | 17 µM | 8.25 µM | 58 µM | 4.41 µM | > 100 µM | 3.38 µM | 24.2 µM | 3.89 µM | 19.9 µM | 3.09 µM | 13.5 µM | 7.53 µM | > 100 µM | 5.75 µM | > 100 µM |
| c1ccc2cc(-c3n(Cc4ccc5ccccc5n4)c4ccccc4[n+]3Cc3ccc4ccccc4n3)ccc2c1 | 0.0802 µM | 0.52 µM | 0.307 µM | 1.32 µM | 0.171 µM | 0.346 µM | 0.395 µM | 1.65 µM | 0.369 µM | 1.35 µM | 0.517 µM | 2.08 µM | 0.277 µM | 1.14 µM | 0.272 µM | 1.12 µM | 0.348 µM | 1.4 µM | 0.362 µM | 1.42 µM |
| OCCNC1c2cc(Cl)ccc2-c2c(Cl)cc(Cl)cc21 (centres undefined) |  | > 100 µM |  | 98.9 µM |  | > 100 µM |  | > 100 µM |  | > 100 µM |  | > 100 µM |  | 53.8 µM |  | > 100 µM |  | 47.6 µM |  | 44.9 µM |
| OC(C#Cc1ccccc1)(c1ccccc1)c1ccccc1 |  | 47.4 µM |  | > 100 µM |  | > 100 µM |  | > 100 µM |  | 56.3 µM |  | 82.4 µM |  | 45.7 µM |  | > 100 µM |  | > 100 µM |  | > 100 µM |
| COC1=C(OC)C(=O)C(SC/C=C(\C)CCCC(C)CCCC(C)CCCC(C)C)=CC1=O (centres undefined) | 0.126 µM | 2.88 µM | 1.92 µM | 8.78 µM | 8.49 µM | > 100 µM | 4.27 µM | > 100 µM | 0.845 µM | > 38.7 µM | 1.11 µM | > 37.7 µM | 0.455 µM | > 26.9 µM | 0.574 µM | > 39.7 µM | 1.41 µM | > 100 µM | 1.09 µM | > 100 µM |
| N#CC1=C(/N=C/c2ccccc2)Oc2c(ccc3ccccc23)C1c1ccccc1 (centres undefined) | 0.441 µM | > 100 µM | 1.31 µM | 20.5 µM | 0.594 µM |  | 0.735 µM | > 64.3 µM | 0.227 µM | 0.573 µM | 5.13 µM | > 100 µM | 0.421 µM | > 100 µM | 0.427 µM | > 47.8 µM | 0.935 µM | > 100 µM | 0.409 µM | > 100 µM |
| O=C(O)Cc1cccnc1 |  | > 100 µM |  | > 100 µM |  | > 100 µM |  | > 100 µM |  | > 100 µM |  | > 100 µM |  | > 100 µM |  | > 100 µM |  | > 100 µM |  | > 100 µM |
| CC(C)(O)CNc1nc(Nc2ccnc(C(F)(F)F)c2)nc(-c2cccc(C(F)(F)F)n2)n1 | 18.5 µM | 56.1 µM | 19.1 µM | 45.6 µM | 18.4 µM | 38.7 µM | 21.6 µM | 67.8 µM | 15.8 µM | 39.9 µM | 21.4 µM | 64.1 µM | 18.2 µM | 42.5 µM | 17.6 µM | 44.5 µM | 13.7 µM | 41.8 µM | 18.3 µM | 90.9 µM |
| CSc1nc2sc3c(c2c(=O)n1-c1ccc(C(C)C)cc1)CCC(=O)C3 | 2.1 µM | 5.07 µM | 2.47 µM | 6.3 µM | 1.89 µM | 3.63 µM | 3.75 µM | > 100 µM | 1.85 µM | 3.71 µM | 3.02 µM | > 100 µM | 3.14 µM | 10.6 µM | 1.94 µM | 3.73 µM | 2.64 µM | 6.71 µM | 2.14 µM | 6.02 µM |
| Nc1nc(Nc2ccccc2SSc2ccccc2Nc2nc(N)nc(C(Cl)(Cl)Cl)n2)nc(C(Cl)(Cl)Cl)n1 | 2.94 µM | 10.2 µM | 3.13 µM | 10.7 µM | 17.6 µM | 34.9 µM | 9.57 µM | 24.4 µM | 6.39 µM | 24.9 µM | 5.8 µM | 20.4 µM | 6.46 µM | 33 µM | 4.82 µM | 16.9 µM | 3.22 µM | 18.1 µM | 1.63 µM | 3.76 µM |
| Cc1cc(C#Cc2ccc(C(C)(C)C)cc2)ccc1-n1c(/C=C/c2ccc(O)cc2O)nc2ccccc2c1=O | 3.1 µM | 26.9 µM | 3.06 µM | 9.59 µM | 3.02 µM | 9.59 µM | 3.42 µM | 13.3 µM | 3.08 µM | 12.3 µM | 3.67 µM | 16.2 µM | 2.39 µM | 9.06 µM | 2.89 µM | 10.8 µM | 2.45 µM | 10.2 µM | 2.45 µM | 6.49 µM |
